Source: patent US20110237629A1, “AMINO ACID ESTER PRODRUGS AND THE USE THEREOF” (Bayer Schering Pharma Aktiengesellschaft, priority 2008, published 2011)
Counter-ions that a name gives are not always drawn.

Experiments:
[1] = Determination of the solubility (suspension shaken 24 h at room temperature, HPLC of supernatant); type: physicochemical; settings: thermodynamic from solid
Experimental: The test substance is suspended in water or dilute hydrochloric acid (pH 4) or in 5% strength aqueous dextrose solution. This suspension is shaken at room temperature for 24 h. After ultracentrifugation at 224 000 g for 30 min, the supernatant is diluted with DMSO and analysed by HPLC. A two-point calibration plot of the test compound in DMSO is used for quantification.
Agilent 1100 with DAD (G1315A), quat. Pump (G1311A), autosampler CTC HTS PAL, degasser (G1322A) and column thermostat (G1316A); column: Phenomenex Gemini C18, 5 μm, 50 mm×2 mm; temperature: 40° C.; eluent A: water/phosphoric acid pH 2, eluent B: acetonitrile; flow rate: 0.7 ml/min; gradient: 0-0.5 min 85% A, 15% B; ramp 0.5-3 min 10% A, 90% B; 3-3.5 min 10% A, 90% B; ramp 3.5-4 min 85% A, 15% B; 4-5 min 85% A, 15% B.
Agilent 1100 with DAD (G1315A), quat. pump (G1311A), autosampler CTC HTS PAL, degasser (G1322A) and column thermostat (G1316A); column: VDSoptilab Kromasil 100 C18, 3.5 μm, 60 mm×2.1 mm; temperature: 30° C.; eluent A: water+5 ml of perchloric acid/liter, eluent B: acetonitrile; flow rate: 0.75 ml/min; gradient: 0-0.5 min 98% A, 2% B; ramp 0.5-4.5 min 10% A, 90% B; 4.5-6 min 10% A, 90% B; ramp 6.5-6.7 min 98% A, 2% B; 6.7-7.5 min 98% A, 2% B.
The solubilities of representative exemplary embodiments in dilute hydrochloric acid (pH 4) are shown in Table1: […]

[2] = i.v. pharmacokinetics in Wistar rats; type: in vivo; settings: male Wistar rats, i.v. bolus, first measurement point
Experimental: On the day before administration of the substance, a catheter for obtaining blood is implanted in the jugular vein of the experimental animals (male Wistar rats, body weight 200-250 g) under Isofluran® anesthesia. On the day of the experiment, a defined dose of the test substance is administered as solution into the tail vein using a Hamilton® glass syringe (bolus administration, duration of administration <10 s). Blood samples (8-12 time points) are taken through the catheter sequentially over the course of 24 h after administration of the substance. Plasma is obtained by centrifuging the samples in heparinized tubes. Acetonitrile is added to a defined plasma volume per time point to precipitate proteins. After centrifugation, test substance and, where appropriate, known cleavage products of the test substance in the supernatant are determined quantitatively using a suitable LC/MS-MS method. […] Only the active ingredient (example 8A) was detectable up to the 8-hour time point too.

[3] = Stability in buffer at various pH values; type: physicochemical
Experimental: 0.3 mg of the test substance is weighed into a 2 ml HPLC vial and 0.5 ml of acetonitrile or acetonitrile/DMSO (9:1) is added. The substance is dissolved by putting the sample vessel in an ultrasonic bath for about 10 seconds. Then 0.5 ml of the respective buffer solution is added, and the sample is again treated in the ultrasonic bath.
(Buffer) solutions employed:
pH 4: 1 liter of Millipore water is adjusted to pH 4.0 with 1 N hydrochloric acid;
pH 5: 0.096 mol of citric acid and 0.2 mol of sodium hydroxide ad 1 liter of water;
pH 7.4: 90.0 g of sodium chloride, 13.61 g of potassium dihydrogen phosphate and 83.35 g of 1 N sodium hydroxide solution are made up to 1 liter with water; this solution is then further diluted 1:10 with Millipore water.
pH 8: 0.013 mol of borax and 0.021 mol of hydrochloric acid ad 1 liter of water.
5 μl portions of the test solution are analyzed by HPLC for their content of unchanged test substance, and of basic mother substance of the formula (A) formed, every hour over a period of 24 hours at 37° C. The percentage areas of the appropriate peaks are used for quantification.
HPLC method for example 1:
Agilent 1100 with DAD (G1315B), binary pump (G1312A), autosampler (G1329A), column oven (G1316A), thermostat (G1330B); column: Kromasil 100 C18, 125 mm×4 mm, 5 μm; column temperature: 30° C.; eluent A: water+5 ml perchloric acid/liter, eluent B: acetonitrile; gradient: 0 min 90% A→2.0 min 70% A→18.0 min 70% A 20.0 min 10% A→21.0 min 10% A→23.0 min 90% A→26.0 min 90% A; flow rate: 2.0 ml/min;
HPLC method for example 3:
Agilent 1100 with DAD (G1314A), binary pump (G1312A), autosampler (G1329A), column oven (G1316A), thermostat (G1330A); column: Kromasil 100 C18, 125 mm×4 mm, 5 μm; column temperature: 30° C.; eluent A: water+5 ml perchloric acid/liter, eluent B: acetonitrile; gradient: 0 min 90% A→2.0 min 64% A→18.0 min 64% A→20.0 min 10% A→21.0 min 10% A→23.0 min 90% A→26.0 min 90% A; flow rate: 2.0 ml/min UV detection: 294 nm.
HPLC method for example 11:
Agilent 1100 with DAD (G1315B), binary pump (G1312A), autosampler (G1329A), column oven (G1316A), thermostat (G1330B); column: Kromasil 100 C18, 125 mm×4 mm, 5 μm; column temperature: 30° C.; eluent A: water+5 ml of perchloric acid/liter, eluent B: acetonitrile; gradient: 0 min 90% A→2.0 min 64% A→18.0 min 64% A→20.0 min 10% A→21.0 min 10% A→23.0 min 90% A→26.0 min 90% A; flow rate: 2.0 ml/min; UV detection: 294 nm.
HPLC method for example 14:
Agilent 1100 with DAD (G1315B), binary pump (G1312A), autosampler (G1329A), column oven (G1316A), thermostat (G1330B); column: Kromasil 100 C18, 250 mm×4 mm, 5 μm; column temperature: 30° C.; eluent A: water+5 ml of perchloric acid/liter, eluent B: acetonitrile; gradient: 0 min 90% A→7.0 min 52% A→18.0 min 52% A→20.0 min 10% A→21.0 min 10% A→23.0 min 90% A -4 26.0 min 90% A; flow rate: 2.0 ml/min; UV detection: 288 nm.
HPLC method for example 18:
Agilent 1100 with DAD (G1315A), binary pump (G1312A), autosampler (G1329A), column oven (G1316A), thermostat (G1330A); column: Kromasil 100 C18, 125 mm×4 mm, 5 μm; column temperature: 30° C.; eluent A: water+5 ml of perchloric acid/liter, eluent B: acetonitrile; gradient: 0 min 90% A→6.0 min 61% A→18.0 min 61% A→20.0 min 10% A→21.0 min 10% A→23.0 min 90% A→26.0 min 90% A; flow rate: 2.0 ml/min; UV detection: 294 nm.
The ratios of the peak areas (F) at the respective time points in relation to the peak areas at the starting time are shown in Table 3 for representative exemplary embodiments: […]

[4] = Determination of the solubility (suspension shaken 24 h at room temperature, HPLC of supernatant); type: physicochemical; settings: 0.1 M hydrochloric acid, simulated gastric fluid, thermodynamic from solid
[5] = saline or isotonic, 5% strength aqueous dextrose solution

| SMILES | solubility at 24 h ([1]; aqueous buffer, dilute hydrochloric acid (pH 4)) [µg/mL] | solubility at 24 h [1, 5] [µg/mL] | detectability of the test substance (prodrug) in plasma after i.v. administration [2] | % test substance after 4 h [F(t = 4 h) × 100/F(t = 0 h)] ([3]; pH 4, 37° C.) [%] | % test substance after 24 h [F(t = 24 h) × 100/F(t = 0 h)] ([3]; pH 4, 37° C.) [%] | % test substance after 4 h [F(t = 4 h) × 100/F(t = 0 h)] ([3]; pH 7.4, 37° C.) [%] | % test substance after 24 h [F(t = 24 h) × 100/F(t = 0 h)] ([3]; pH 7.4, 37° C.) [%] | solubility at 24 h [4] [µg/mL] |
| --- | --- | --- | --- | --- | --- | --- | --- | --- |
| C[C@H](N)C(=O)OC[C@H](COc1ccc(-c2c(C#N)c(N)nc(SCc3coc(-c4ccc(Cl)cc4)n3)c2C#N)cc1)OC(=O)[C@H](C)N [Example 1, (2S)-3-{4-[2-Amino-6-({[2-(4-chlorophenyl)-1,3-oxazol-4-yl]methyl}sulfanyl)-3,5-dicyanopyridin-4-yl]phenoxy}propane-1,2-diyl(2S,2′S)-bis(2-aminopropanoate)dihydrochloride] | > 500 | > 500 | no longer detectable | 99 | 98 | 90 | 53 | – |
| N#Cc1c(N)nc(SCc2coc(-c3ccc(Cl)cc3)n2)c(C#N)c1-c1ccc(OC[C@H](O)CO)cc1 [Example 8A, 2-Amino-6-({[2-(4-chlorophenyl)-1,3-oxazol-4-yl]methyl}sulfanyl)-4-(4-{[(2R)-2,3-dihydroxypropyl]oxy}phenyl)pyridine-3,5-dicarbonitrile, reference compound] | – | < 1.2 | – | – | – | – | – | < 0.1 |
